# Assay results published in ChEMBL document CHEMBL1201862, “PubChem BioAssay data set” (2004).
#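 Step 1: Grow cells in 96-well plates. Step 2: Expose to compound for 48 hours at 5 concentrations. Step 3: Interpolate endpoints linearly; if unreached, use highest concentration. The concentration for 50% growth inhibition is given as GI50.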 The source made the active and inactive calls. No stated cut-off is given here; in the data, active = GI50 up to about 1.1 µM and inactive = higher.
# Key:
# Assay in all cases: DTP human tumour cell line panel, 48 h
# MDA-MB-435 = tested on: MDA-MB-435
# CAKI-1 = tested on: CAKI-1
# HCT-116 = tested on: HCT-116
# OVCAR-4 = tested on: OVCAR-4
# MDA-MB-231 = tested on: MDA-MB-231
# HCC 2998 = tested on: HCC 2998
# NCI-H23 = tested on: NCI-H23
# SW-620 = tested on: SW-620
# T47D = tested on: T47D
# LOX IMVI = tested on: LOX IMVI
# NCI-H460 = tested on: NCI-H460
# IGROV-1 = tested on: IGROV-1
# 786-0 = tested on: 786-0
# OVCAR-8 = tested on: OVCAR-8
# SK-OV-3 = tested on: SK-OV-3
# A498 = tested on: A498
# NCI/ADR-RES = tested on: NCI/ADR-RES
# SF-539 = tested on: SF-539
# SR = tested on: SR
# HCT-15 = tested on: HCT-15
# TK-10 = tested on: TK-10
# RXF 393 = tested on: RXF 393
# PC-3 = tested on: PC-3
# ACHN = tested on: ACHN
# SF-268 = tested on: SF-268
# SK-MEL-2 = tested on: SK-MEL-2
# DU-145 = tested on: DU-145
# SNB-75 = tested on: SNB-75
# OVCAR-3 = tested on: OVCAR-3
# MDA-N = tested on: MDA-N
# MOLT-4 = tested on: MOLT-4
# Hs-578T = tested on: Hs-578T
# NCI-H226 = tested on: NCI-H226
# KM12 = tested on: KM12
# Malme-3M = tested on: Malme-3M
# A549 = tested on: A549
# SNB-19 = tested on: SNB-19
# M14 = tested on: M14
# UACC-257 = tested on: UACC-257
# SK-MEL-5 = tested on: SK-MEL-5
# COLO 205 = tested on: COLO 205
# RPMI-8226 = tested on: RPMI-8226
# SN12C = tested on: SN12C
# U-251 = tested on: U-251
# SF-295 = tested on: SF-295
# OVCAR-5 = tested on: OVCAR-5
# HOP-92 = tested on: HOP-92
# HT-29 = tested on: HT-29
# SK-MEL-28 = tested on: SK-MEL-28
# UACC-62 = tested on: UACC-62
# MCF7 = tested on: MCF7
# UO-31 = tested on: UO-31
# NCI-H522 = tested on: NCI-H522
# HOP-62 = tested on: HOP-62
# K562 = tested on: K562
# CCRF-CEM = tested on: CCRF-CEM
# BT-549 = tested on: BT-549
# EKVX = tested on: EKVX
# HL-60 = tested on: HL-60
smiles,measurement,setting,value
COc1cc2c(cc1O)C(c1cc(O)c(O)c(OC)c1)C(O)(C(=O)O)C(CO)C2O (configuration not stated),GI50,MDA-MB-435,17.6 µM (inactive)
same,GI50,CAKI-1,> 100 µM (inactive)
same,GI50,HCT-116,18.3 µM (inactive)
same,GI50,OVCAR-4,> 100 µM (inactive)
same,GI50,MDA-MB-231,40.8 µM (inactive)
same,GI50,HCC 2998,> 100 µM (inactive)
same,GI50,NCI-H23,> 100 µM (inactive)
same,GI50,SW-620,26 µM (inactive)
same,GI50,T47D,> 100 µM (inactive)
same,GI50,LOX IMVI,17.9 µM (inactive)
same,GI50,NCI-H460,> 100 µM (inactive)
same,GI50,IGROV-1,> 100 µM (inactive)
same,GI50,786-0,16.1 µM (inactive)
same,GI50,OVCAR-8,> 100 µM (inactive)
same,GI50,SK-OV-3,> 100 µM (inactive)
same,GI50,A498,> 100 µM (inactive)
same,GI50,NCI/ADR-RES,> 100 µM (inactive)
same,GI50,SF-539,> 100 µM (inactive)
same,GI50,SR,66.4 µM (inactive)
same,GI50,HCT-15,> 100 µM
same,GI50,TK-10,> 100 µM (inactive)
same,GI50,RXF 393,> 100 µM (inactive)
same,GI50,PC-3,> 100 µM (inactive)
same,GI50,ACHN,> 100 µM (inactive)
same,GI50,SF-268,> 100 µM (inactive)
same,GI50,SK-MEL-2,> 100 µM (inactive)
same,GI50,DU-145,> 100 µM (inactive)
same,GI50,SNB-75,> 100 µM (inactive)
same,GI50,OVCAR-3,> 100 µM (inactive)
same,GI50,MDA-N,16.6 µM (inactive)
same,GI50,MOLT-4,20.3 µM (inactive)
same,GI50,Hs-578T,> 100 µM (inactive)
same,GI50,NCI-H226,> 100 µM (inactive)
same,GI50,KM12,> 100 µM (inactive)
same,GI50,Malme-3M,> 100 µM (inactive)
same,GI50,A549,> 100 µM (inactive)
same,GI50,SNB-19,> 100 µM (inactive)
same,GI50,M14,> 100 µM (inactive)
same,GI50,UACC-257,> 100 µM (inactive)
same,GI50,SK-MEL-5,> 100 µM (inactive)
same,GI50,COLO 205,> 100 µM (inactive)
same,GI50,RPMI-8226,> 100 µM (inactive)
same,GI50,SN12C,16.4 µM (inactive)
same,GI50,U-251,> 100 µM (inactive)
same,GI50,SF-295,> 100 µM (inactive)
same,GI50,OVCAR-5,> 100 µM (inactive)
same,GI50,HOP-92,> 100 µM (inactive)
same,GI50,HT-29,> 100 µM (inactive)
same,GI50,SK-MEL-28,> 100 µM (inactive)
same,GI50,UACC-62,> 100 µM (inactive)
same,GI50,MCF7,20.9 µM (inactive)
same,GI50,UO-31,> 100 µM (inactive)
same,GI50,NCI-H522,> 100 µM (inactive)
same,GI50,HOP-62,> 100 µM (inactive)
same,GI50,K562,47 µM (inactive)
same,GI50,CCRF-CEM,2.62 µM (inactive)
same,GI50,BT-549,> 100 µM (inactive)
same,GI50,EKVX,20.7 µM (inactive)
Nn1c(SCC(=O)O)nc2ccccc2c1=O,GI50,MDA-MB-435,> 100 µM (inactive)
same,GI50,CAKI-1,> 100 µM (inactive)
same,GI50,HCT-116,> 100 µM (inactive)
same,GI50,OVCAR-4,> 100 µM (inactive)
same,GI50,MDA-MB-231,> 100 µM (inactive)
same,GI50,HCC 2998,> 100 µM (inactive)
same,GI50,NCI-H23,> 100 µM (inactive)
same,GI50,SW-620,> 100 µM (inactive)
same,GI50,T47D,> 100 µM (inactive)
same,GI50,LOX IMVI,> 100 µM (inactive)
same,GI50,NCI-H460,> 100 µM (inactive)
same,GI50,IGROV-1,> 100 µM (inactive)
same,GI50,786-0,> 100 µM (inactive)
same,GI50,OVCAR-8,> 100 µM (inactive)
same,GI50,A498,> 100 µM (inactive)
same,GI50,NCI/ADR-RES,> 100 µM (inactive)
same,GI50,SF-539,> 100 µM (inactive)
same,GI50,SR,> 100 µM (inactive)
same,GI50,HCT-15,> 100 µM
same,GI50,TK-10,> 100 µM (inactive)
same,GI50,RXF 393,> 100 µM (inactive)
same,GI50,PC-3,> 100 µM (inactive)
same,GI50,ACHN,> 100 µM (inactive)
same,GI50,SF-268,> 100 µM (inactive)
same,GI50,SK-MEL-2,> 100 µM (inactive)
same,GI50,DU-145,> 100 µM (inactive)
same,GI50,SNB-75,> 100 µM (inactive)
same,GI50,OVCAR-3,> 100 µM (inactive)
same,GI50,MDA-N,> 100 µM (inactive)
same,GI50,MOLT-4,> 100 µM (inactive)
same,GI50,Hs-578T,> 100 µM (inactive)
same,GI50,NCI-H226,> 100 µM (inactive)
same,GI50,KM12,> 100 µM (inactive)
same,GI50,Malme-3M,> 100 µM (inactive)
same,GI50,A549,> 100 µM (inactive)
same,GI50,SNB-19,> 100 µM (inactive)
same,GI50,M14,> 100 µM (inactive)
same,GI50,UACC-257,> 100 µM (inactive)
same,GI50,SK-MEL-5,> 100 µM (inactive)
same,GI50,COLO 205,> 100 µM (inactive)
same,GI50,RPMI-8226,> 100 µM (inactive)
same,GI50,SN12C,> 100 µM (inactive)
same,GI50,U-251,> 100 µM (inactive)
same,GI50,SF-295,> 100 µM (inactive)
same,GI50,OVCAR-5,> 100 µM (inactive)
same,GI50,HOP-92,> 100 µM (inactive)
same,GI50,HT-29,> 100 µM (inactive)
same,GI50,SK-MEL-28,> 100 µM (inactive)
same,GI50,UACC-62,> 100 µM (inactive)
same,GI50,MCF7,> 100 µM (inactive)
same,GI50,UO-31,> 100 µM (inactive)
same,GI50,NCI-H522,> 100 µM (inactive)
same,GI50,K562,> 100 µM (inactive)
same,GI50,CCRF-CEM,> 100 µM (inactive)
same,GI50,BT-549,> 100 µM (inactive)
same,GI50,EKVX,> 100 µM (inactive)
C=C(Cl)C(Cl)(CBr)CCC(Br)C(C)(C)Br (configuration not stated),GI50,MDA-MB-435,9.44 µM (inactive)
same,GI50,CAKI-1,2.47 µM (inactive)
same,GI50,HCT-116,1.74 µM (inactive)
same,GI50,OVCAR-4,16.3 µM (inactive)
same,GI50,MDA-MB-231,11.9 µM (inactive)
same,GI50,HL-60,2.19 µM (inactive)
same,GI50,HCC 2998,5.75 µM (inactive)
same,GI50,NCI-H23,14.2 µM (inactive)
same,GI50,SW-620,3 µM (inactive)
same,GI50,T47D,2.25 µM (inactive)
same,GI50,LOX IMVI,15.3 µM (inactive)
same,GI50,NCI-H460,1.72 µM (inactive)
same,GI50,IGROV-1,18.2 µM (inactive)
same,GI50,786-0,1.14 µM (inactive)
same,GI50,OVCAR-8,4.3 µM (inactive)
same,GI50,SK-OV-3,17.2 µM (inactive)
same,GI50,A498,10.5 µM (inactive)
same,GI50,NCI/ADR-RES,5.66 µM (inactive)
same,GI50,SF-539,1.99 µM (inactive)
same,GI50,SR,13.4 µM (inactive)
same,GI50,HCT-15,3.03 µM
same,GI50,TK-10,1.49 µM (inactive)
same,GI50,RXF 393,1.8 µM (inactive)
same,GI50,PC-3,2.31 µM (inactive)
same,GI50,ACHN,2.62 µM (inactive)
same,GI50,SF-268,3.22 µM (inactive)
same,GI50,DU-145,3.97 µM (inactive)
same,GI50,SNB-75,2.12 µM (inactive)
same,GI50,OVCAR-3,2.93 µM (inactive)
same,GI50,MDA-N,8.93 µM (inactive)
same,GI50,MOLT-4,6.9 µM (inactive)
same,GI50,Hs-578T,2.96 µM (inactive)
same,GI50,NCI-H226,20.1 µM (inactive)
same,GI50,KM12,1.38 µM (inactive)
same,GI50,Malme-3M,14.3 µM (inactive)
same,GI50,A549,4.9 µM (inactive)
same,GI50,SNB-19,8.75 µM (inactive)
same,GI50,M14,16.3 µM (inactive)
same,GI50,UACC-257,1.8 µM (inactive)
same,GI50,SK-MEL-5,16.6 µM (inactive)
same,GI50,COLO 205,2.75 µM (inactive)
same,GI50,RPMI-8226,0.426 µM (active)
same,GI50,SN12C,7.28 µM (inactive)
same,GI50,U-251,1.77 µM (inactive)
same,GI50,SF-295,2 µM (inactive)
same,GI50,OVCAR-5,12.7 µM (inactive)
same,GI50,HOP-92,2.76 µM (inactive)
same,GI50,HT-29,1.07 µM (active)
same,GI50,SK-MEL-28,2.95 µM (inactive)
same,GI50,UACC-62,9.93 µM (inactive)
same,GI50,MCF7,1.5 µM (inactive)
same,GI50,UO-31,8.17 µM (inactive)
same,GI50,NCI-H522,5.86 µM (inactive)
same,GI50,HOP-62,1.06 µM (active)
same,GI50,K562,4.73 µM (inactive)
same,GI50,CCRF-CEM,6.21 µM (inactive)
same,GI50,BT-549,7.66 µM (inactive)
same,GI50,EKVX,8.45 µM (inactive)
